Several values for one entry are separate records, joined by “and”; a condition that tells them apart may be missing. Equal entries are not always repeated.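 Values below derive from 48-hour exposures of cells grown in 96-well plates, with endpoints linearly interpolated between the two concentrations bracketing the appropriate inhibition level. GI50 marks 50% less growth. The concentration for full growth arrest is given as TGI.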

Broadly, the TGI is the concentration at which net growth stops. What is called GI50 is the concentration that inhibits growth by half.

Holding throughout (assay): DTP human tumour cell line panel, 48 h
Test [1] relates to K-562 leukemia.
Test [2] deals with A549 NSCLC.
Test [3] concerns RPMI-8226 leukemia.
Test [4] concerns SF-295 CNS.
The subject of test [5] is MALME-3M melanoma.
Test [6] has as its system HOP-92 NSCLC.
In test [7] the test system is HL-60(TB) leukemia.
The test system of test [8] is COLO 205 colon.
Test [9] has as its system NCI-H23 lung.
The test system of test [10] is SNB-75 CNS.

`O=c1[nH]c(=O)n(C2CC(O)C(CO)O2)cc1Br` (stereo not given): the TGI in [1], in [2], in test [3], in test [4], in test [5] and in [6] was > 100 µM each time. The TGI in [7], in test [8], in [9] and in [10] was > 100 µM each time.
Regarding `NC(=O)/N=C/c1c(O)c2ccccc2oc1=O`, the TGI in [1], in test [3], in test [4], in test [6], in [7] and in [8] was > 100 µM throughout. For the same compound, the TGI in [9] was > 100 µM.
Turning to `Cn1c(=O)c2[nH]c(SC/C(=N/O)c3ccc(Br)cc3)nc2n(C)c1=O`, the GI50 is 25.9 µM in test [1]; 34.7 µM in test [3]; 1.82 µM in test [4]; 2.4 µM in test [5]; 2.02 µM in test [6]; 68.6 µM in test [7]. The GI50 was > 100 µM in [8], 2.08 µM in test [9] and 2.04 µM in [10]. The concentration for total growth inhibition (TGI) was > 100 µM in test [1]; > 100 µM in test [3]; 4.1 µM in test [4]; 5.22 µM in [5]; 4.56 µM in test [6]; > 100 µM in test [7]. The TGI in test [8] was > 100 µM; in [9], 4.75 µM; in test [10] it was 5.07 µM.
Turning to `O=S(O)c1cc(Cl)c(O)c(Cl)c1`, the TGI in [1], in test [5], in test [7], in [9] and in [10] was > 100 µM each time.
`O=C1C(=C([O-])c2ccccc2)C(=O)c2ccccc21.O=C1C(=C([O-])c2ccccc2)C(=O)c2ccccc21.[Ni+2]`: the GI50 is 52.5 µM in test [2]; > 100 µM in test [3]; 41.4 µM in test [4]; 75.4 µM in test [5]; 37.4 µM in test [9]; 35.2 µM in test [10]. The TGI in [2], in test [3], in [4], in [5], in test [9] and in test [10] was > 100 µM throughout.
On to `COc1ccc2c3/c(=C\c4ccc(N(C)C)cc4)c4ccccc4n3[n+](C)c2c1`, for which the GI50 was 0.0272 µM in test [1]; 0.236 µM in test [2]; < 0.0112 µM in [3]; 0.202 µM in [4]; 0.236 µM in test [6]; 0.051 µM in test [7]. The 50% growth inhibitory concentration (GI50) was 0.029 µM in test [8], 0.0639 µM in test [9] and 0.578 µM in test [10]. Further, the TGI is > 40 µM in test [1]; 0.136 µM in test [3]; 1.78 µM in test [6]; 0.757 µM in test [8]; 0.722 µM in test [9]; 4.18 µM in [10].
As for `CC1OC(O[C@@H]2C=C3CC[C@@H]4[C@H](CC[C@]5(C)[C@@H](c6ccc(=O)oc6)CC[C@]45O)[C@@]3(C)CC2)C(O)C(OC2OC(CO)C(O)C(O)C2O)C1O` (stereo not given in full), the TGI in [2] was 0.000142 µM; in test [5], 0.0143 µM; in [8], 0.163 µM and 0.029 µM; in test [9], 0.0236 µM; in [10] it was 0.0587 µM and 0.0407 µM. Moreover, the GI50 in [5] is 0.000628 µM; in [6], 0.000166 µM; in test [8], 0.000949 µM; in test [10], 0.000974 µM.
For the compound `COC(=O)c1c(O)ccc2c1c1c(n2Cc2cccc(C)c2)C(=O)c2ccccc2C1`, the TGI in test [1] was > 75 µM; in test [2] it was > 75 µM; in test [3], 31 µM; in test [4], > 75 µM; in test [5], 69.5 µM; in test [6], > 75 µM. The TGI in test [7] is > 75 µM; in [8], 22.3 µM; in [9], > 75 µM.
Consider `COc1cc(O)c(Cc2ccccc2O)c(O)c1C(=O)CCc1ccccc1`, for which the TGI in [1] turned out to be 20 µM; in [2] it was 21.8 µM; in test [3], 9.8 µM; in [4], 16.1 µM; in test [5] it was 15.8 µM; in test [6], 10.8 µM. The TGI in [7] worked out at 20 µM; in [8], 16.5 µM; in [9], 12 µM; in test [10], 19.7 µM.

The record behind these values is PubChem BioAssay (NCI).
